The record followed here is US9624170B2, “4-(piperrazin-1-yl)-pyrrolidin-2-one compounds as monoacylglycerol lipase (MAGL) inhibitors” (TAKEDA PHARMACEUTICAL COMPANY LIMITED, priority 2013, dated 2017).

The first assay has as its target T1, human MAGL (His-hMAGL) (Homo sapiens, UniProt Q99685).
T1 construct: made in house; host or cells: Escherichia coli BL21(DE3)
T1 sequence (Q99685 1-303): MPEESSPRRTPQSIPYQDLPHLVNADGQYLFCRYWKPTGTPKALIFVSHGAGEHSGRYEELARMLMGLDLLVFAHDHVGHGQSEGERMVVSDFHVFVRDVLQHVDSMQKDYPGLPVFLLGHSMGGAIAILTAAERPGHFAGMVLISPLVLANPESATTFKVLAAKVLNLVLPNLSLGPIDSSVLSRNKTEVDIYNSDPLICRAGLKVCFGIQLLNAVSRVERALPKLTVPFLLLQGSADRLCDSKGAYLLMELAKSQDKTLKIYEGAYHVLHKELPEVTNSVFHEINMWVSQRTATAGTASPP
Description: Measurement of MAGL inhibitory activity by mass spectrometry. The format is biochemical. To be noted: MAGL inhibitory rate, test compound 10 μM, His-hMAGL, substrate 2-arachidonylglycerol, RapidFire-mass spectrometry. The essentials: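 His-tagged human MAGL was reacted with 150 μM 2-arachidonylglycerol substrate (stock, added by 5 μL) for 10 min at room temperature, then stopped with formic acid. Arachidonic acid product was quantified by RapidFire–triple-quadrupole MS in negative SRM mode, corrected by arachidonic acid-d8, and converted to percent inhibition.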
The compound `CC(C)(C)CC(=O)N1CCc2cc(N3C[C@H](N4CCN(C(=O)c5cscn5)CC4)CC3=O)ccc21` [Example 414, (4R)-1-(1-(3,3-dimethylbutanoyl)-2,3-dihydro-1H-indol-5-yl)-4-(4-(1,3-thiazol-4-ylcarbonyl)piperazin-1-yl)pyrrolidin-2-one] showed an inhibition at 10 µM of 100%. In the case of `O=C(c1cscn1)N1CCN([C@@H]2CC(=O)N(c3ccc4c(c3)CCN4C(=O)Cc3ccc(Cl)cc3)C2)CC1` [Example 415, (4R)-1-(1-((4-chlorophenyl)acetyl)-2,3-dihydro-1H-indol-5-yl)-4-(4-(1,3-thiazol-4-ylcarbonyl)piperazin-1-yl)pyrrolidin-2-one], 10 µM produced 97% inhibition. Same read-out and setting: to `O=C(c1cscn1)N1CCN([C@@H]2CC(=O)N(c3ccc4c(c3)CCN4C(=O)Cc3cccc(Cl)c3)C2)CC1` [Example 416, (4R)-1-(1-((3-chlorophenyl)acetyl)-2,3-dihydro-1H-indol-5-yl)-4-(4-(1,3-thiazol-4-ylcarbonyl)piperazin-1-yl)pyrrolidin-2-one] belongs 99%; to `O=C(c1cscn1)N1CCN([C@@H]2CC(=O)N(c3ccc4c(ccn4-c4ccc(C(F)(F)F)cc4)c3)C2)CC1` [Example 418, (4R)-4-(4-(1,3-Thiazol-4-ylcarbonyl)piperazin-1-yl)-1-(1-(4-(trifluoromethyl)phenyl)-1H-indol-5-yl)pyrrolidin-2-one], 96%. `O=C(c1cscn1)N1CCN([C@@H]2CC(=O)N(c3ccc4c(ccn4-c4ccc(C(F)(F)F)cn4)c3)C2)CC1` [Example 419, (4R)-4-(4-(1,3-Thiazol-4-ylcarbonyl)piperazin-1-yl)-1-(1-(5-(trifluoromethyl)pyridin-2-yl)-1H-indol-5-yl)pyrrolidin-2-one] yielded an inhibition at 10 µM of 96%.

`O=C(c1cscn1)N1CCN([C@@H]2CC(=O)N(c3ccc4c(c3)CCN4c3ccc(C(F)(F)F)cn3)C2)CC1` [Example 420, (4R)-4-(4-(1,3-Thiazol-4-ylcarbonyl)piperazin-1-yl)-1-(1-(5-(trifluoromethyl)pyridin-2-yl)-2,3-dihydro-1H-indol-5-yl)pyrrolidin-2-one]: the inhibition at 10 µM was 89%.

Consider `O=C(c1cscn1)N1CCN([C@@H]2CC(=O)N(c3ccc4c(ccn4-c4cccc(C(F)(F)F)c4)c3)C2)CC1` [Example 421, (4R)-4-(4-(1,3-thiazol-4-ylcarbonyl)piperazin-1-yl)-1-(1-(3-(trifluoromethyl)phenyl)-1H-indol-5-yl)pyrrolidin-2-one], for which the inhibition at 10 µM was found to be 100%. As for `O=C(c1cscn1)N1CCN([C@@H]2CC(=O)N(c3ccc4c(ccn4-c4cccc(F)c4)c3)C2)CC1` [Example 422, (4R)-1-(1-(3-fluorophenyl)-1H-indol-5-yl)-4-(4-(1,3-thiazol-4-ylcarbonyl)piperazin-1-yl)pyrrolidin-2-one], at 10 µM the inhibition was 99%. For `O=C(c1cscn1)N1CCN([C@@H]2CC(=O)N(c3ccc4c(ccn4-c4ccc(Cl)cc4)c3)C2)CC1` [Example 423, (4R)-1-(1-(4-Chlorophenyl)-1H-indol-5-yl)-4-(4-(1,3-thiazol-4-ylcarbonyl)piperazin-1-yl)pyrrolidin-2-one], the inhibition at 10 µM was 98%. On the same count and under the same terms, for `O=C(c1cscn1)N1CCN([C@@H]2CC(=O)N(c3ccc4c(ccn4-c4cc(C(F)(F)F)ccn4)c3)C2)CC1` [Example 425, (4R)-4-(4-(1,3-Thiazol-4-ylcarbonyl)piperazin-1-yl)-1-(1-(4-(trifluoromethyl)pyridin-2-yl)-1H-indol-5-yl)pyrrolidin-2-one] the value was 100%; for `Cc1ncccc1-c1cc(F)cc(N2C[C@H](N3CCN(c4ncccn4)CC3)CC2=O)c1` [Example 426, (4R)-1-(3-Fluoro-5-(2-methylpyridin-3-yl)phenyl)-4-(4-(pyrimidin-2-yl)piperazin-1-yl)pyrrolidin-2-one], 99%. In turn, `O=C(c1cscn1)N1CCN([C@@H]2CC(=O)N(c3ccc4c(ccn4-c4cccc(Cl)c4)c3)C2)CC1` [Example 428, (4R)-1-(1-(3-chlorophenyl)-1H-indol-5-yl)-4-(4-(1,3-thiazol-4-ylcarbonyl)piperazin-1-yl)pyrrolidin-2-one] yielded an inhibition at 10 µM of 100%. In turn, `O=C(c1cscn1)N1CCN([C@@H]2CC(=O)N(c3ccc4c(c3)CCN4c3ccc(F)cc3)C2)CC1` [Example 429, (4R)-1-(1-(4-fluorophenyl)-2,3-dihydro-1H-indol-5-yl)-4-(4-(1,3-thiazol-4-ylcarbonyl)piperazin-1-yl)pyrrolidin-2-one] returned an inhibition at 10 µM of 100%. For the compound `O=C(c1cscn1)N1CCN([C@@H]2CC(=O)N(c3ccc4c(ccn4-c4ncc(C(F)(F)F)cn4)c3)C2)CC1` [Example 432, (4R)-4-(4-(1,3-Thiazol-4-ylcarbonyl)piperazin-1-yl)-1-(1-(5-(trifluoromethyl)pyrimidin-2-yl)-1H-indol-5-yl)pyrrolidin-2-one], the inhibition at 10 µM worked out at 100%. Same read-out and setting: for `O=C1CC(N2CCN(c3ncccn3)CC2)CN1c1ccc2c(ccn2-c2ncc(C(F)(F)F)cn2)c1` (stereo not drawn) [Example 433, 4-(4-(Pyrimidin-2-yl)piperazin-1-yl)-1-(1-(5-(trifluoromethyl)pyrimidin-2-yl)-1H-indol-5-yl)pyrrolidin-2-one] the value was 83%; for `CC1C(N2CCN(C(=O)c3nccs3)CC2)CC(=O)N1c1ccc2c(ccn2-c2ncc(C(F)(F)F)cn2)c1` (stereo not drawn) [Example 434, 5-methyl-4-(4-(1,3-thiazol-2-ylcarbonyl)piperazin-1-yl)-1-(1-(5-(trifluoromethyl)pyrimidin-2-yl)-1H-indol-5-yl)pyrrolidin-2-one], 100%.

The assay is the same for the next values; noted with them: MAGL inhibitory rate, test compound 10 μM, His-hMAGL, substrate 2-arachidonylglycerol, RapidFire-mass spectrometry; 10 µM.
With `O=C1CC(N2CCN(c3ncccn3)CC2)CN1c1ccc2c(c1)CCN2c1ncc(C(F)(F)F)cn1` (stereo not drawn) [Example 430, 4-(4-(Pyrimidin-2-yl)piperazin-1-yl)-1-(1-(5-(trifluoromethyl)pyrimidin-2-yl)-2,3-dihydro-1H-indol-5-yl)pyrrolidin-2-one (optical isomer)], the “% inhibition at 10 μM” value is recorded as 85%.

Another assay has as its target T1, human MAGL (His-hMAGL). Nature of the assay: Measurement of MAGL inhibitory activity by absorbance. It counts as biochemical. To be noted: 10 μM test compound; substrate p-nitrophenyl acetate, absorbance at 405 nm. The source says: (1) Cloning of Human MGLL Encoding MAGL Protein and Construction of Expression Plasmid
Human MGLL cDNA was obtained by PCR using human ORF Clone (DNAForm; Clone ID: 100004585) as a template. For PCR, two kinds of primers: […]
The obtained PCR product was digested with Bam HI and Not I (Takara Bio Inc.), inserted into the Bam HI/Not I site of pET21HH(V) (pET21a (Novagen) inserted with His x6 and TEV Protease recognition sequence) by using Ligation High (Toyobo Co., Ltd.), and introduced into ECOS™ JM109 (Nippon Gene Co., Ltd.), whereby expression plasmid pET21HH(V)/His-hMGLLv2 for Escherichia coli was constructed. (2) Preparation of Recombinant Polyhistidine Tagged Human MAGL Protein
Recombinant His-hMAGL protein was prepared by transforming ECOS™ Competent E. coli BL21(DE3) (Nippon Gene Co., Ltd.) with the pET21HH(V)/His-hMGLLv2 plasmid prepared above. Escherichia coli obtained by transformation was inoculated to 10 mL of LB medium (1% peptone, 0.5% yeast extract, 0.5% sodium chloride, 0.01% ampicillin), and cultured at 30° C. for 16 hr. […] When the turbidity of the culture medium reached about 500 Klett unit, the culture temperature was lowered to 16° C., isopropyl-β-D-thiogalactopyranoside (IPTG) was added to a final concentration of 1 mM, and the mixture was further cultured for 19 hr. After the completion of culture, the culture medium was centrifuged (4° C., 6,000 rpm, 10 min) to give His-hMAGL expression Escherichia coli. Then, His-hMAGL expression Escherichia coli was suspended in 50 mM Tris-HCl (pH 8.0, 100 ml) containing 1% Triton X-100, 20 mM imidazole, 3 mM DTT, 5 U/mL Benzonase (Merck) and 150 mM NaCl, sufficiently cooled, and subjected to sonication at […]=60%, 15 sec/ON, 30 sec/OFF for 3 min using ¾″ solid type crushed horn of BRANSON Digital Sonifier 450 (Central Scientific Commerce, Inc.). Furthermore, the homogenate was centrifuged (4° C., 15,000 rpm, 15 min) and the supernatant was obtained. As the purification apparatus, AKTA explorer 10s (GE Healthcare Japan Corporation) was used at 4° C. To the obtained supernatant was added 5M NaCl to the final salt concentration of 0.3 M, and the mixture was flown through and adsorbed to 5 mL of Ni-NTA Superflow Cartridges (QIAGEN) equilibrated in advance with buffer A (50 mM Tris-HCl (pH 8.0) containing 0.05% TritonX-100, 1 mM DTT, 300 mM NaCl). The column was sufficiently washed with buffer A containing 20 mM imidazole and His-hMAGL was eluted with buffer A containing imidazole at a final concentration of 250 mM. The eluate was further subjected to gel filtration using HiLoad 26/600 Superdex 200 pg (GE Healthcare Japan Corporation) equilibrated with 50 mM Tris-HCl pH 8.0 containing 10% glycerol, 0.05% TritonX-100, 1 mM DTT, 150 mM NaCl. The eluted fraction was concentrated by Amicon Ultra-15 10K (Merck Millipore) to give purified His-hMAGL protein. The protein concentration was measured by BCA Protein Assay Kit (Thermo Fisher Scientific) using BSA as the standard.
(3) Measurement of MAGL Inhibitory Activity
His-hMAGL obtained above was diluted with enzyme reaction buffer (10 mM Tris-HCl, pH 7.5, 1 mM EDTA, 0.1 (w/v) % Triton X-100) to a concentration of 60 ng/mL. […] Thereafter, to each well was added 750 μM p-nitrophenyl acetate (Wako Pure Chemical Industries, Ltd.) by 5 μL, and the absorbance at 405 nm was measured every 2 minutes up to 10 minutes by EnVision (PerkinElmer). The amount of change was obtained by subtracting the absorbance measured immediately after the start of the reaction from the absorbance measured 10 min after the start of the reaction.
MAGL inhibitory rate (%) was calculated according to the following calculation formula. (1−(absorbance change amount of test compound addition group−absorbance change amount of enzyme addition-free group)[…](absorbance change amount of test compound addition-free group−absorbance change amount of enzyme addition-free group))×100
On to `O=C(c1cscn1)N1CCN(C2CC(=O)N(c3ccc(Oc4ccccc4)cc3)C2)CC1` (stereo not drawn) [Example 6, 1-(4-phenoxyphenyl)-4-(4-(1,3-thiazol-4-ylcarbonyl)piperazin-1-yl)pyrrolidin-2-one], for which the inhibition at 10 µM amounted to 93%.
